The text below walks through data of US11173151B2, “Substituted triazole derivatives and uses thereof” (BAYER AKTIENGESELLSCHAFT, priority 2017, dated 2021).

pIC50: −log10 of the molar value.

The target in one experiment is T1, human V2 receptor (Homo sapiens, UniProt P30518).
T1 construct: expressed in transfected cells; host or cells: CHO K1 (ATCC) expressing firefly luciferase under a CRE-responsive promoter
As to the kind of experiment: Cellular in vitro assay for determining vasopressin receptor activity, V2 receptor cell line (CHO, CRE-luciferase). The class given is cell-based. The settings on record: CHO cell line transfected with human V2 receptor; [Arg8]-vasopressin at EC50 concentration, 3 hours; read-out: IC50 hV2.

For another experiment, the target named is T2, human V1a receptor (Homo sapiens, UniProt P37288).
T2 construct: expressed in transfected cells; host or cells: CHO K1 (ATCC), also stably transfected with a modified aequorin
T2 sequence (P37288 whole entry): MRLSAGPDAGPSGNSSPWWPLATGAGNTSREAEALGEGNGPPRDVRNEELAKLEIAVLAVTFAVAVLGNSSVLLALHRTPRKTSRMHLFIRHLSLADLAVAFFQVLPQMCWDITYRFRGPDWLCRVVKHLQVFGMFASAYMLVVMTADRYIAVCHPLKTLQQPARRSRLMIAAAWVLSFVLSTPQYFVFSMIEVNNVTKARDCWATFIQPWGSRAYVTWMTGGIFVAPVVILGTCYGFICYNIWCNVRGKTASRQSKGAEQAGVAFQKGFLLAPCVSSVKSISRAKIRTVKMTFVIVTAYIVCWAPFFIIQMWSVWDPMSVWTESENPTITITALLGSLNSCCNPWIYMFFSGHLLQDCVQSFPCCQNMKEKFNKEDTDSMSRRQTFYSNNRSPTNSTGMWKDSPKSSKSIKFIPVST
As to the kind of experiment: Cellular in vitro assay for determining vasopressin receptor activity, V1a receptor cell line (CHO, aequorin luminescence). It counts as cell-based. As to conditions: for pIC50: CHO cell line transfected with human V1a receptor, [Arg]-vasopressin at EC50 concentration, read-out: IC50 hV1a; for ratio IC50 hV2/hV1a: selectivity ratio IC50 hV2 / IC50 hV1a. The gist of the method: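 Luminescence from reconstituted aequorin, reporting intracellular calcium release, was measured immediately after adding [Arg]-vasopressin at EC50 concentration to CHO K1 cells pretreated 10 minutes with graded compound concentrations. Inhibition gave IC50 values.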

T1 sequence (P30518 whole entry): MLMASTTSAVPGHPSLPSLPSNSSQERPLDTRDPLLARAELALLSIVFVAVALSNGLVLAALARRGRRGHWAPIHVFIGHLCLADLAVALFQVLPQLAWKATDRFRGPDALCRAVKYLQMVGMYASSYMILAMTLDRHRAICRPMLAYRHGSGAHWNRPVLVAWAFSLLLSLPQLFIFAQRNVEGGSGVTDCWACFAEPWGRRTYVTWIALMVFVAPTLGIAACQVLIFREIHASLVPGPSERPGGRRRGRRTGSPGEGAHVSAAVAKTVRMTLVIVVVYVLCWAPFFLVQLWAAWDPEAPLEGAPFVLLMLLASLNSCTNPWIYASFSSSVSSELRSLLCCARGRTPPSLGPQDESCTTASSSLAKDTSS

As to `O=C(Nc1ncccc1-n1cnc(Cn2nc(-c3ccc(Cl)cc3)n(C[C@H](O)C(F)(F)F)c2=O)n1)c1ccncc1` [Example 157], the negative-log IC50 (pIC50) on human V2 receptor is 5.52. Also, on human V1a receptor, the negative logarithm of the IC50 (pIC50) was 8.45 and the “ratio IC50 hV2/hV1a” value worked out at 859.2.

Regarding `CC(C)(C)CC(=O)Nc1ncccc1-n1cnc(Cn2nc(-c3ccc(Cl)cc3)n(C[C@H](O)C(F)(F)F)c2=O)n1` [Example 158], the pIC50 is 5.42 at human V2 receptor and 7.98 on human V1a receptor. Further, at human V1a receptor, the “ratio IC50 hV2/hV1a” value was determined as 360.2.

For the compound `O=C(Nc1ncccc1-n1cnc(Cn2nc(-c3ccc(Cl)cc3)n(C[C@H](O)C(F)(F)F)c2=O)n1)C1CCCCC1` [Example 159], at human V2 receptor, the pIC50 is 5.73. Further, on human V1a receptor, the pIC50 is 7.28 and the “ratio IC50 hV2/hV1a” value was 35.2.

Regarding `Cc1cc(C(=O)Nc2ncccc2-n2cnc(Cn3nc(-c4ccc(Cl)cc4)n(C[C@H](O)C(F)(F)F)c3=O)n2)no1` [Example 161], on human V2 receptor, the pIC50 was 6.30. On human V1a receptor, the negative-log IC50 (pIC50) was 7.58 and the “ratio IC50 hV2/hV1a” value came to 18.9.

As to `Cc1cccc(C(=O)Nc2ncccc2-n2cnc(Cn3nc(-c4ccc(Cl)cc4)n(C[C@H](O)C(F)(F)F)c3=O)n2)c1` [Example 162], the negative logarithm of the IC50 (pIC50) is 5.14 on human V2 receptor and 6.52 at human V1a receptor. In addition, on human V1a receptor, the “ratio IC50 hV2/hV1a” value stood at 24.0.

In the case of `O=C(Nc1ncccc1-n1cnc(Cn2nc(-c3ccc(Cl)cc3)n(C[C@H](O)C(F)(F)F)c2=O)n1)c1ccno1` [Example 163], the results for the negative-log IC50 (pIC50) at human V2 receptor and at human V1a receptor were 5.89 and 7.55, respectively. For the same compound, the “ratio IC50 hV2/hV1a” value on human V1a receptor was found to be 46.4.

For the compound `Cc1cn(CC(=O)Nc2ncccc2-n2cnc(Cn3nc(-c4ccc(Cl)cc4)n(C[C@H](O)C(F)(F)F)c3=O)n2)nn1` [Example 164], the pIC50 at human V2 receptor is 5.89. Besides, at human V1a receptor, the pIC50 was 6.18 and the “ratio IC50 hV2/hV1a” value is reported as 2.0.

Take `O=C(CC1CCCCO1)Nc1ncccc1-n1cnc(Cn2nc(-c3ccc(Cl)cc3)n(C[C@H](O)C(F)(F)F)c2=O)n1` (stereo partly shown) [Example 165]: the negative-log IC50 (pIC50) at human V2 receptor was 6.20. Besides, on human V1a receptor, the negative-log IC50 (pIC50) is 7.18 and the “ratio IC50 hV2/hV1a” value amounted to 9.6.

In the case of `O=C(Nc1ncccc1-n1cnc(Cn2nc(-c3ccc(Cl)cc3)n(C[C@H](O)C(F)(F)F)c2=O)n1)C1CCCCO1` (stereo partly shown) [Example 166], the negative logarithm of the IC50 (pIC50) on human V2 receptor was 5.70. In addition, on human V1a receptor, the negative logarithm of the IC50 (pIC50) is 7.41 and the “ratio IC50 hV2/hV1a” value came to 51.3.

Consider `O=C(Nc1ncccc1-n1cnc(Cn2nc(-c3ccc(Cl)cc3)n(C[C@H](O)C(F)(F)F)c2=O)n1)OCC(F)(F)F` [Example 167, 2,2,2-Trifluoroethyl {3-[3-({3-(4-chlorophenyl)-5-oxo-4-[(2S)-3,3,3-trifluoro-2-hydroxypropyl]-4,5-dihydro-1H-1,2,4-triazol-1-yl}methyl)-1H-1,2,4-triazol-1-yl]pyridin-2-yl}carbamate], for which, on human V2 receptor, the negative logarithm of the IC50 (pIC50) was 5.90. Moreover, on human V1a receptor, the pIC50 is 7.71 and the “ratio IC50 hV2/hV1a” value is on record as 64.7.

Regarding `O=C(NCC(F)(F)F)c1ccccc1-n1cnc(Cn2nc(-c3ccc(Cl)cc3)n(C[C@@H](O)C(F)(F)F)c2=O)n1` [Example 168, 2-[3-({3-(4-Chlorophenyl)-5-oxo-4-[(2R)-3,3,3-trifluoro-2-hydroxypropyl]-4,5-dihydro-1H-1,2,4-triazol-1-yl}methyl)-1H-1,2,4-triazol-1-yl]-N-(2,2,2-trifluoroethyl)benzamide], the pIC50 on human V2 receptor is 5.81. On human V1a receptor, the pIC50 is 7.55 and the “ratio IC50 hV2/hV1a” value is on record as 54.1.

Turning to `CNC(=O)c1ccccc1-n1cnc(Cn2nc(-c3ccc(Cl)cc3)n(C[C@H](O)C(F)(F)F)c2=O)n1` [Example 169, 2-[3-({3-(4-Chlorophenyl)-5-oxo-4-[(2S)-3,3,3-trifluoro-2-hydroxypropyl]-4,5-dihydro-1H-1,2,4-triazol-1-yl}methyl)-1H-1,2,4-triazol-1-yl]-N-methylbenzamide], the pIC50 at human V2 receptor was 6.55. In addition, on human V1a receptor, the pIC50 is 8.63 and the “ratio IC50 hV2/hV1a” value is on record as 118.5.

Turning to `O=C1CN(C(=O)c2ccccc2-n2cnc(Cn3nc(-c4ccc(Cl)cc4)n(C[C@H](O)C(F)(F)F)c3=O)n2)CCN1` [Example 171, 4-{2-[3-({3-(4-Chlorophenyl)-5-oxo-4-[(2S)-3,3,3-trifluoro-2-hydroxypropyl]-4,5-dihydro-1H-1,2,4-triazol-1-yl}methyl)-1H-1,2,4-triazol-1-yl]benzoyl}piperazin-2-one], the pIC50 on human V2 receptor is 5.13. For the same compound, on human V1a receptor, the negative logarithm of the IC50 (pIC50) is 6.86 and the “ratio IC50 hV2/hV1a” value is reported as 52.8.

On to `O=C(c1ccccc1-n1cnc(Cn2nc(-c3ccc(Cl)cc3)n(C[C@H](O)C(F)(F)F)c2=O)n1)N1CCOCC1` [Example 172, 5-(4-Chlorophenyl)-2-({1-[2-(morpholin-4-ylcarbonyl)phenyl]-1H-1,2,4-triazol-3-yl}methyl)-4-[(2S)-3,3,3-trifluoro-2-hydroxypropyl]-2,4-dihydro-3H-1,2,4-triazol-3-one], for which the figures for the negative-log IC50 (pIC50) on human V2 receptor and at human V1a receptor were 5.67 and 8.49, respectively.

Take `CC(C)(N)CNC(=O)c1ccccc1-n1cnc(Cn2nc(-c3ccc(Cl)cc3)n(C[C@H](O)C(F)(F)F)c2=O)n1` [Example 173, N-(2-Amino-2-methylpropyl)-2-[3-({3-(4-chlorophenyl)-5-oxo-4-[(2S)-3,3,3-trifluoro-2-hydroxypropyl]-4,5-dihydro-1H-1,2,4-triazol-1-yl}methyl)-1H-1,2,4-triazol-1-yl]benzamide]: on human V2 receptor, the pIC50 is 5.58. For the same compound, on human V1a receptor, the pIC50 was 8.37 and the “ratio IC50 hV2/hV1a” value came out at 608.2.

For `O=C(NCC(F)(F)F)c1ccccc1-n1cnc(Cn2nc(-c3ccc(Cl)cc3)n(C[C@H](O)C(F)(F)F)c2=O)n1` [Example 174, 2-[3-({3-(4-Chlorophenyl)-5-oxo-4-[(2S)-3,3,3-trifluoro-2-hydroxypropyl]-4,5-dihydro-1H-1,2,4-triazol-1-yl}methyl)-1H-1,2,4-triazol-1-yl]-N-(2,2,2-trifluoroethyl)benzamide], the negative logarithm of the IC50 (pIC50) on human V2 receptor is 6.59; on human V1a receptor, 8.30. Besides, the “ratio IC50 hV2/hV1a” value at human V1a receptor is reported as 51.4.

As to `O=C(c1ccccc1-n1cnc(Cn2nc(-c3ccc(Cl)cc3)n(C[C@H](O)C(F)(F)F)c2=O)n1)N1CCC(F)(F)CC1` [Example 175, 5-(4-Chlorophenyl)-2-[(1-{2-[(4,4-difluoropiperidin-1-yl)carbonyl]phenyl}-1H-1,2,4-triazol-3-yl)methyl]-4-[(2S)-3,3,3-trifluoro-2-hydroxypropyl]-2,4-dihydro-3H-1,2,4-triazol-3-one], the negative-log IC50 (pIC50) at human V2 receptor is 5.81. On human V1a receptor, the pIC50 is 7.99 and the “ratio IC50 hV2/hV1a” value is recorded as 150.7.

On to `O=C(NC1CS(=O)(=O)C1)c1ccccc1-n1cnc(Cn2nc(-c3ccc(Cl)cc3)n(C[C@H](O)C(F)(F)F)c2=O)n1` [Example 176, 2-[3-({3-(4-Chlorophenyl)-5-oxo-4-[(2S)-3,3,3-trifluoro-2-hydroxypropyl]-4,5-dihydro-1H-1,2,4-triazol-1-yl}methyl)-1H-1,2,4-triazol-1-yl]-N-(1,1-dioxidothietan-3-yl)benzamide], for which, at human V2 receptor, the negative-log IC50 (pIC50) was 5.90. Besides, at human V1a receptor, the negative logarithm of the IC50 (pIC50) was 7.82 and the “ratio IC50 hV2/hV1a” value is reported as 83.3.

For the compound `O=C(NCCN1CCCC1=O)c1ccccc1-n1cnc(Cn2nc(-c3ccc(Cl)cc3)n(C[C@H](O)C(F)(F)F)c2=O)n1` [Example 177, 2-[3-({3-(4-Chlorophenyl)-5-oxo-4-[(2S)-3,3,3-trifluoro-2-hydroxypropyl]-4,5-dihydro-1H-1,2,4-triazol-1-yl}methyl)-1H-1,2,4-triazol-1-yl]-N-[2-(2-oxopyrrolidin-1-yl)ethyl]benzamide], the pIC50 on human V2 receptor is 6.16; on human V1a receptor, 8.00. At human V1a receptor, the “ratio IC50 hV2/hV1a” value was 69.7.

In the case of `O=C1CC[C@@H](CNC(=O)c2ccccc2-n2cnc(Cn3nc(-c4ccc(Cl)cc4)n(C[C@H](O)C(F)(F)F)c3=O)n2)N1` [Example 178, 2-[3-({3-(4-Chlorophenyl)-5-oxo-4-[(2S)-3,3,3-trifluoro-2-hydroxypropyl]-4,5-dihydro-1H-1,2,4-triazol-1-yl}methyl)-1H-1,2,4-triazol-1-yl]-N-{[(2S)-5-oxopyrrolidin-2-yl]methyl}benzamide], the pIC50 at human V2 receptor was 5.74. Moreover, on human V1a receptor, the negative-log IC50 (pIC50) is 7.73 and the “ratio IC50 hV2/hV1a” value is given as 97.3.

As for `O=C1CC[C@H](CNC(=O)c2ccccc2-n2cnc(Cn3nc(-c4ccc(Cl)cc4)n(C[C@H](O)C(F)(F)F)c3=O)n2)N1` [Example 179, 2-[3-({3-(4-Chlorophenyl)-5-oxo-4-[(2S)-3,3,3-trifluoro-2-hydroxypropyl]-4,5-dihydro-1H-1,2,4-triazol-1-yl}methyl)-1H-1,2,4-triazol-1-yl]-N-{[(2R)-5-oxopyrrolidin-2-yl]methyl}benzamide], the pIC50 on human V2 receptor was 5.77. At human V1a receptor, the pIC50 is 8.21 and the “ratio IC50 hV2/hV1a” value worked out at 278.7.

For the compound `CC(=O)N[C@H]1CCN(C(=O)c2ccccc2-n2cnc(Cn3nc(-c4ccc(Cl)cc4)n(C[C@H](O)C(F)(F)F)c3=O)n2)C1` [Example 180, N-[(3S)-1-{2-[3-({3-(4-Chlorophenyl)-5-oxo-4-[(2S)-3,3,3-trifluoro-2-hydroxypropyl]-4,5-dihydro-1H-1,2,4-triazol-1-yl}methyl)-1H-1,2,4-triazol-1-yl]benzoyl}pyrrolidin-3-yl]acetamide], at human V2 receptor, the pIC50 is 5.53. Also, on human V1a receptor, the pIC50 was 7.17 and the “ratio IC50 hV2/hV1a” value was 43.4.

With `CC1(C)CN(C(=O)c2ccccc2-n2cnc(Cn3nc(-c4ccc(Cl)cc4)n(C[C@H](O)C(F)(F)F)c3=O)n2)CCN1` [Example 181, 5-(4-Chlorophenyl)-2-[(1-{2-[(3,3-dimethylpiperazin-1-yl)carbonyl]phenyl}-1H-1,2,4-triazol-3-yl)methyl]-4-[(2S)-3,3,3-trifluoro-2-hydroxypropyl]-2,4-dihydro-3H-1,2,4-triazol-3-one], the figures for the pIC50 on human V2 receptor and at human V1a receptor were 4.73 and 6.71, respectively.
